As a reminder, the Ki is a measure of affinity in units of concentration, obtained from inhibition or displacement.

In experiment [1] the target is T1, Aspergillus oryzae CEL3A beta-glucosidase (Aspergillus oryzae, UniProt Q2UUD6).
T1 construct: made in house
Nature of the experiment: Cellobiose hydrolysis by CEL3A beta-glucosidase. In kind it is biochemical. As to conditions: 10 mM FeSO4; 2 g cellobiose and 1 mg enzyme per liter (FIG. 21). How it is done: The Fe(II) inhibition of Aspergillus oryzae CEL3A beta-glucosidase was measured similarly, except cellobiose replaced PASC. The initial rate vs Fe(II) concentration plots appeared as “mixed” type, whose complexity prevented extraction of Kis.

In experiment [2] the test system is Cellulolytic Enzyme Composition #1. Nature of the experiment: mini-scale PCS hydrolysis by Cellulolytic Enzyme Composition #1. In kind it is biochemical, Trichoderma reesei. The settings on record: 10 mM FeSO4; 43 g PCS and 0.25 g enzyme per liter, pH 5, 50° C. How it is done: (§1) The effect of various salts (FeSO4, FeCl2, NaCl, Na2SO4, MnSO4, MnCl2) was determined in the hydrolysis of PCS by Cellulolytic Enzyme Composition #2. The PCS hydrolysis was performed in duplicate in capped 1.7 ml EPPENDORF® tubes (“mini-scale”) containing 1 ml suspensions of 43.4 g of PCS (dry weight) per liter, 10 mM salts in 50 mM sodium acetate pH 5. Cellulolytic Enzyme Composition #2 was added at 0.25 g per liter. Reactions without the addition of the salt served as controls. The capped tubes were incubated at 50° C. in an INNOVA® 4080 incubator shaker (New Brunswick Scientific Co., Inc., Edison, N.J., USA) at 150 rpm.
Aliquots of the suspensions, sampled over time, were filtered by centrifugation using a 0.45 μm MULTISCREEN® HV membrane (Millipore, Billerica, Mass., USA) at 2000 rpm for 15 minutes using a SORVALL® RT7 centrifuge (Thermo Fisher Scientific, Waltham, Mass., USA). When not used immediately, the filtered sugary aliquots were frozen at −20° C. Sugar concentrations of the samples diluted in 0.005 M H2SO4 were measured after elution from a 4.6×250 mm AMINEX® HPX-87H column (Bio-Rad, Hercules, Calif., USA) by 0.005 M H2SO4 at a flow rate of 0.4 ml/minute at 65° C. with quantitation by integration of glucose and cellobiose using refractive index detection (CHEMSTATION®, AGILENT® 1100 HPLC, Agilent Technologies, Santa Clara, Calif., USA) calibrated with standards of glucose and cellobiose. The resultant equivalents were used to calculate the percentage of cellulose conversion for each reaction.
Example 30 was repeated with both Cellulolytic Enzyme Composition #1 and Cellulolytic Enzyme Composition #2. Soluble reducing sugars were measured by HPLC as described in Example 30. Reactions without the addition of FeSO4 served as controls.
The hydrolysis was performed in a series of duplicate “mini-scale” hydrolysis reactions according to the procedure described in Example 30.

Experiment [3] shares this test system. Nature of the experiment: mini-plate-scale PASC hydrolysis by Cellulolytic Enzyme Composition #1. In kind it is biochemical, Trichoderma reesei.
In experiment [4] the target is T2, Trichoderma reesei Cel5A endoglucanase II (Trichoderma reesei, UniProt P07982).
T2 construct: made in house; host or cells: Aspergillus oryzae JaL250 (transformant JaL250AlLo27)
T2 sequence (P07982 22-418): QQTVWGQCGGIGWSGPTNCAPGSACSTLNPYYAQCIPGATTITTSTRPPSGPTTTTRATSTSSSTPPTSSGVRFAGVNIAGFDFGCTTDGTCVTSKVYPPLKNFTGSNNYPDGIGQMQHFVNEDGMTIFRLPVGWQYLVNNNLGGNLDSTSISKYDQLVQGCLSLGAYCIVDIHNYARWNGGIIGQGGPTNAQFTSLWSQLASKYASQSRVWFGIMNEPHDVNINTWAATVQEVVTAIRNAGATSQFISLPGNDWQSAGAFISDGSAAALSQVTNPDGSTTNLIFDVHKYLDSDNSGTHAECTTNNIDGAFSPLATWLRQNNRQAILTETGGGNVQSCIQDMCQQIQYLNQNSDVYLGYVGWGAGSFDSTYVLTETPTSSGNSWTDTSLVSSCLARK
Nature of the experiment: PASC hydrolysis by Cel5A endoglucanase II. It counts as biochemical. As to conditions: 10 mM FeSO4; 2 g PASC and 40 mg enzyme per liter (FIG. 20D).

Experiment [5] concerns the target T3, Trichoderma reesei Cel7B endoglucanase I (Trichoderma reesei, UniProt P07981).
T3 construct: made in house; host or cells: Aspergillus oryzae JaL250
The experiment is described as follows: PASC hydrolysis by Cel7B endoglucanase I. The settings on record: 10 mM FeSO4; 2 g PASC and 40 mg enzyme per liter (FIG. 20C). In kind it is biochemical.

For experiment [6], the system named is Cellulolytic Enzyme Composition #1. Nature of the experiment: mini-scale AVICEL hydrolysis by Cellulolytic Enzyme Composition #1. It counts as biochemical, Trichoderma reesei. As to the method:
FIGS. 19A, 19B, 19C, and 19D show the effective inhibitory concentration range of Fe(II) on the hydrolysis of AVICEL® by Cellulolytic Enzyme Composition #1 (A and B) and on the hydrolysis of PASC by Cellulolytic Enzyme Composition #1 (C and D). The AVICEL® hydrolysis was conducted with […] of AVICEL® and 0.25 g of Cellulolytic Enzyme Composition #1 per liter of 50 mM sodium acetate pH 5 at 50° C. FeSO4 (mM): (∘) 0, (+) 1, (Δ) 3, (⋄) 5, (□) 10. Dixon plot linear regression line: 1/Rate=(0.035±0.003)[Fe(II)]+(0.043±0.015), r^2=0.978. Rate was estimated from the hydrolysis difference (%) at 24 and 6 hours. The PASC hydrolysis was conducted with 2 g of PASC and 50 mg of Cellulolytic Enzyme Composition #1 per liter of 50 mM sodium acetate pH 5 at 50° C. Dixon plot linear regression line: 1/Rate=(0.0042±0.0003)[Fe(II)]+(0.059±0.002), r^2=0.994. Rates were estimated from the hydrolysis difference (%) at 7 hours.
as §1
In one series of “mini-scale” hydrolysis reactions performed according to the procedure described in Example 30, the effect of 1 mM to 10 mM FeSO4 was evaluated in the hydrolysis of AVICEL® by Cellulolytic Enzyme Composition #1.

T1 sequence (Q2UUD6 20-861): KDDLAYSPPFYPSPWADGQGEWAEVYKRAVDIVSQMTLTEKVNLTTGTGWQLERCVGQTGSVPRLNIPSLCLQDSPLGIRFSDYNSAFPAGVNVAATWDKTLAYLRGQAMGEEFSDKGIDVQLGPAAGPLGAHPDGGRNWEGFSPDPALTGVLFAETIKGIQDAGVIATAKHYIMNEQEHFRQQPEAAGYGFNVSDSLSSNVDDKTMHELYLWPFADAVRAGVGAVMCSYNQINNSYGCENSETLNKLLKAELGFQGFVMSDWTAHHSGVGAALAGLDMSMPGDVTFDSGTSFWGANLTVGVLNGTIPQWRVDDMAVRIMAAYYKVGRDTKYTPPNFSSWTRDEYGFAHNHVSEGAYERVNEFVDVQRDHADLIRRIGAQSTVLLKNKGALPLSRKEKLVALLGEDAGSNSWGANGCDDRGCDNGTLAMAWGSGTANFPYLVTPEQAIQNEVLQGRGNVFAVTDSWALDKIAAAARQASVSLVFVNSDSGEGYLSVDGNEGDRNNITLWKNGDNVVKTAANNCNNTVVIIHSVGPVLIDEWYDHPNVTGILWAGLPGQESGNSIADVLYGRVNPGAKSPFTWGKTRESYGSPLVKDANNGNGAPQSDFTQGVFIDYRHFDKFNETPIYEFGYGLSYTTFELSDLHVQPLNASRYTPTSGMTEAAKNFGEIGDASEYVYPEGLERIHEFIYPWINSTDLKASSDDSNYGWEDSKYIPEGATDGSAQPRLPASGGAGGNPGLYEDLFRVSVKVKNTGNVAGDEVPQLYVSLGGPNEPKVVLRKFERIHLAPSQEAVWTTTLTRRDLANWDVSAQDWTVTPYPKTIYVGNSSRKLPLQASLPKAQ
T3 sequence (P07981 23-459): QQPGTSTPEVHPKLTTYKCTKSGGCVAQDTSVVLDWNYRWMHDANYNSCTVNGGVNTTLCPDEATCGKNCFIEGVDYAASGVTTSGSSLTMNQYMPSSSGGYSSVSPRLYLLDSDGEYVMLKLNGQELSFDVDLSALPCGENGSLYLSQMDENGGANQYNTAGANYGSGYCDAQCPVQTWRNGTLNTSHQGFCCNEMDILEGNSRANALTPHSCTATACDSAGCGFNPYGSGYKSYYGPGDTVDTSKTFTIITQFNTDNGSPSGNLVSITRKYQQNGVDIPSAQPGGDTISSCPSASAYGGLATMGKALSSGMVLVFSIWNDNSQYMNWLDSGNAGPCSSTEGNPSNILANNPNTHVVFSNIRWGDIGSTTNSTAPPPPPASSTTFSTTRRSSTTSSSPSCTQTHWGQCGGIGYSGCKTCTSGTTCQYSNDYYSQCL

On to Ferrous sulfate [FeSO4], for which the values for the Effect on enzyme result in experiment [1], in experiment [4] and in experiment [5] were “slightly inhibited”, “significantly inhibited” and “significantly inhibited”, respectively. In addition, the “Effect on PCS hydrolysis” value in experiment [2] is “significantly inhibited”. Moreover, the “Concentration dependence of inhibition” value in experiment [3] (1 mM to 10 mM FeSO4, PASC (FIG. 19C)) was “increasingly inhibitory”; in experiment [6] (1 mM to 10 mM FeSO4, AVICEL (FIG. 19A)), “increasingly inhibitory”. For the same substance, the “Type of inhibition (double-reciprocal plots)” value in experiment [3] (0.1 to 10 mM FeSO4, 0.6 to 4 g PASC, 0.01 g enzyme per liter) is recorded as “mix-type inhibition”. Moreover, the Ki in experiment [3] (on PASC, 2 g PASC and 0.05 g enzyme per liter, read-out: Ki (x-intercept of Dixon plot)) is approximately 14 mM; in experiment [6] (on AVICEL, 23 g AVICEL and 0.25 g enzyme per liter, read-out: Ki (x-intercept of Dixon plot)), approximately 1.3 mM.

(Values after patent US20090130707A1, “Methods of reducing the inhibitory effect of a redox active metal ion on the enzymatic hydrolysis of cellulosic material” (priority 2007, published 2009).)
